Our source for the Ki values is patent US9663513B2, “Pyrimidine PDE10 inhibitors” (Merck Sharp & Dohme Corp., priority 2012, dated 2017).

The target in the experiment is human PDE10A2 (Homo sapiens (Human), UniProt Q9Y233). As to the kind of experiment: PDE10 fluorescence polarization (IMAP FP) inhibition assay. It counts as biochemical. The conditions noted are these: human PDE10A2 from transfected AD293 cells; FAM-labeled cAMP 50 nM; apparent inhibition constant; read-out: PDE10A Ki. On the procedure: The activity of the compounds in accordance with the present invention as PDE10 inhibitors may be readily determined without undue experimentation using a fluorescence polarization (FP) methodology that is well known in the art (Huang, W., et al., J. Biomol Screen, 2002, 7: 215).
In a typical experiment the PDE10 inhibitory activity of the compounds of the present invention was determined in accordance with the following experimental method. PDE10A2 was amplified from human fetal brain cDNA (Clontech, Mountain View, Calif.) using a forward primer corresponding to nucleotides 56-77 of human PDE10A2 (Accession No. AF127480, Genbank Identifier 4894716), containing a Kozak consensus sequence, and a reverse primer corresponding to nucleotides 2406-2413 of human PDE10A2 (Accession No. AF127480, Genbank Identifier 4894716). Amplification with Easy-A polymerase (Stratagene, La Jolla, Calif.) was 95° C. for 2 minutes followed by thirty three cycles of 95° C. for 40 seconds, 55° C. for 30 seconds, and 72° C. for 2 minutes 48 seconds. Final extension was 72° C. for 7 minutes. The PCR product was TA cloned into pcDNA3.2-TOPO (Invitrogen, Carlsbad, Calif.) according to standard protocol. AD293 cells with 70-80% confluency were transiently transfected with human PDE10A2/pcDNA3.2-TOPO using Lipofectamine 2000 according to manufacturer specifications (Invitrogen, Carlsbad, Calif.). Cells were harvested 48 hours post-transfection and lysed by sonication (setting 3, 10×5 sec pulses) in a buffer containing 20 mM HEPES, 1 mM EDTA and protease inhibitor cocktail (Roche). Lysate was collected by centrifugation at 75,000×g for 20 minutes. Supernatant containing the cytoplasmic fraction was used for evaluation of PDE10A2 activity. The fluorescence polarization assay for cyclic nucleotide phosphodiesterases was performed using an IMAP® FP kit supplied by Molecular Devices, Sunnyvale, Calif. (product # R8139). IMAP® technology has been applied previously to phosphodiesterase assays (Huang, W., et al., J. Biomol Screen, 2002, 7: 215). Assays were performed at room temperature in 384-well microtiter plates with an incubation volume of 20.2 μL. Solutions of test compounds were prepared in DMSO and serially diluted with DMSO to yield 8 μL of each of 10 solutions differing by 3-fold in concentration, at 32 serial dilutions per plate. […] 0% of inhibition is determined by using DMSO (1% final concentrations).
A Labcyte Echo 555 (Labcyte, Sunnyvale, Calif.) is used to dispense 200 nL from each well of the titration plate to the 384 well assay plate. A solution of enzyme (1/1600 dilution from aliquots; sufficient to produce 20% substrate conversion) and a separate solution of FAM-labeled cAMP PDE from Molecular Devices (product # R7506), at a final concentration of 50 nM are made in the assay buffer (10 mM Tris HCl, pH 7.2, 10 mM MgCl2, 0.05% NaN3 0.01% Tween-20, and 1 mM DTT). The enzyme and the substrate are then added to the assay plates in two consecutive additions of 10 μL, and then shaken to mix. The reaction is allowed to proceed at room temperature for 30 minutes. […] The enzymatic reaction is stopped by addition of 60 μL of the binding solution to each well of the assay plates and the plates are sealed and shaken for 10 seconds. The plate was incubated at room temperature for at least one hour prior to determining the fluorescence polarization (FP). The parallel and perpendicular fluorescence of each well of the plate was measured using a Perkin Elmer EnVision™ plate reader (Waltham, Mass.).
Fluorescence polarization (mP) was calculated from the parallel (S) and perpendicular (P) fluorescence of each sample well and the analogous values for the median control well, containing only substrate (So and Po), using the following equation: Polarization(mP)=1000*(S/So−P/Po)/(S/So+P/Po).
Dose-inhibition profiles for each compound were characterized by fitting the mP data to a four-parameter equation given below.
Background: Fluorescence polarisation rises when a labelled molecule tumbles more slowly, as on binding a larger partner.

Molecules are shown by their SMILES.

Chain of human PDE10A2 (Q9Y233 267-1055): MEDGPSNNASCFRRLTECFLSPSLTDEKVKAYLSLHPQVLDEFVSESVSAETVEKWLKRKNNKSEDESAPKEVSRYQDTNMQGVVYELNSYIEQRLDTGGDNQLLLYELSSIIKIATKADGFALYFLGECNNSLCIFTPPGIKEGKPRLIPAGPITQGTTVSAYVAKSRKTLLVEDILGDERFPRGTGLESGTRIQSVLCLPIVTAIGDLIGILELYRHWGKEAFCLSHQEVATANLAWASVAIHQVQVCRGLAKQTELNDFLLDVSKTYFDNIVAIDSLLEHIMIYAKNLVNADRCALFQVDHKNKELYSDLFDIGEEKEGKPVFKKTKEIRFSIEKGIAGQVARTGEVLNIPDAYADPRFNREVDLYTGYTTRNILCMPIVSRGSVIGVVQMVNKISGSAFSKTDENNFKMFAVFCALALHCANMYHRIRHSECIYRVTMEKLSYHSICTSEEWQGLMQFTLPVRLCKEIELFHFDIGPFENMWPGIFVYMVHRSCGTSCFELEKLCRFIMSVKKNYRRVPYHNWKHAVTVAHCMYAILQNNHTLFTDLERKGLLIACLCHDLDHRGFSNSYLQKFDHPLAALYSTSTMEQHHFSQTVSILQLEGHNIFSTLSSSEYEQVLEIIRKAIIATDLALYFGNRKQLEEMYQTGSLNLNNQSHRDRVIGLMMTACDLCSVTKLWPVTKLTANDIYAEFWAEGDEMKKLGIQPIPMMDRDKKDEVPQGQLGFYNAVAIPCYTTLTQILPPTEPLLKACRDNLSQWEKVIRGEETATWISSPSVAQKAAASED

As to `Cc1ncc(-c2ccncc2)c(OC[C@H]2C[C@@H]2c2ccc3ccccc3n2)n1` (single isomer, unassigned) [Example 26], the Ki worked out at 0.02 nM.
The result for `Cc1ncc(-c2ccncc2)c(OC[C@H]2C[C@@H]2c2ccc3ccccc3n2)n1` (single isomer, unassigned) [Example 27] reads 0.93 nM.
With `COc1ccc(-c2cnc(C)nc2OC[C@H]2C[C@@H]2c2ccc3ccccc3n2)cc1` (single isomer, unassigned) [Example 28], the Ki was 0.1 nM.
Take `COc1ccc(-c2cnc(C)nc2OC[C@H]2C[C@@H]2c2ccc3ccccc3n2)cc1` (single isomer, unassigned) [Example 29]: the Ki worked out at 1.66 nM.
In the case of `CCc1ccc(-c2cnc(C)nc2OC[C@H]2C[C@@H]2c2ccc3ccccc3n2)cc1` (single isomer, unassigned) [Example 30] it was 0.37 nM; in that of `CCc1ccc(-c2cnc(C)nc2OC[C@H]2C[C@@H]2c2ccc3ccccc3n2)cc1` (single isomer, unassigned) [Example 31], 7.95 nM; in that of `Cc1ncc(-c2ccc(C(C)O)cc2)c(OC[C@H]2C[C@@H]2c2ccc3ccccc3n2)n1` (single isomer, unassigned) [Example 34], 0.01 nM.
Take `Cc1ncc(-c2ccc(C(C)O)cc2)c(OC[C@H]2C[C@@H]2c2ccc3ccccc3n2)n1` (single isomer, unassigned) [Example 35]: the Ki was 1.05 nM.
Take `Cc1ncc(-c2ccc(CO)cc2)c(OC[C@H]2C[C@@H]2c2ccc3ccccc3n2)n1` (single isomer, unassigned) [Example 38]: the Ki turned out to be 0.03 nM.
For `Cc1ncc(-c2ccc(CO)cc2)c(OC[C@H]2C[C@@H]2c2ccc3ccccc3n2)n1` (single isomer, unassigned) [Example 39], the Ki is 0.87 nM.
In the case of `CCOc1cccc(-c2cnc(C)nc2OC[C@H]2C[C@@H]2c2ccc3ccccc3n2)c1` (single isomer, unassigned) [Example 40, 2,2,2-trifluoroacetate] it was 0.04 nM; in that of `CCOc1cccc(-c2cnc(C)nc2OC[C@H]2C[C@@H]2c2ccc3ccccc3n2)c1` (single isomer, unassigned) [Example 41, 2,2,2-trifluoroacetate], 5.08 nM.
In the case of `Cc1ccc([C@H]2C[C@@H]2COc2nc(C)ncc2-c2ccc(C(C)(C)O)nc2)nc1` (single isomer, unassigned) [Example 46] it was 0.06 nM; in that of `COc1ccc([C@H]2C[C@@H]2COc2nc(C)ncc2-c2ccc([S+](C)[O-])nc2)nc1` (single isomer, unassigned) [Example 64], 1.75 nM.
The result for `COc1ccc([C@H]2C[C@@H]2COc2nc(C)ncc2-c2ccc([S+](C)[O-])nc2)nc1` (single isomer, unassigned) [Example 65] reads 2.62 nM; that for `Cc1ncc(-c2cnc3[nH]ncc3c2)c(OC[C@H]2C[C@@H]2c2ccc3ccccc3n2)n1` (single isomer, unassigned) [Example 151], 0.02 nM.
For the compound `Cc1ncc(-c2cnc3[nH]ncc3c2)c(OC[C@H]2C[C@@H]2c2ccc3ccccc3n2)n1` (single isomer, unassigned) [Example 152], the Ki came to 1.78 nM.
In the case of `Cc1ncc(-c2ccc(C(C)(C)O)nc2)c(OC[C@H]2C[C@@H]2c2ncccc2C)n1` (single isomer, unassigned) [Example 173] it was 0.51 nM; in that of `Cc1ncc(-c2ccc(C(C)(C)O)nc2)c(OC[C@H]2C[C@@H]2c2ncccc2C)n1` (single isomer, unassigned) [Example 174], 8.42 nM; in that of `Cc1cccc([C@H]2C[C@@H]2COc2nc(C)ncc2-c2ccc(C(C)(C)O)nc2)n1` (single isomer, unassigned) [Example 175], 0.2 nM.
In the case of `Cc1ccnc([C@H]2C[C@@H]2COc2nc(C)ncc2-c2ccc(C(C)(C)O)nc2)c1` (single isomer, unassigned) [Example 177] it was 0.38 nM; in that of `Cc1ccnc([C@H]2C[C@@H]2COc2nc(C)ncc2-c2ccc(C(C)(C)O)nc2)c1` (single isomer, unassigned) [Example 178], 35.6 nM.
In the case of `CCc1ccc([C@H]2C[C@@H]2COc2nc(C)ncc2-c2ccc(C(C)(C)O)nc2)nc1` (single isomer, unassigned) [Example 180] it was 5.95 nM; in that of `CCc1ccc([C@H]2C[C@@H]2COc2nc(C)ncc2-c2ccc(C(C)(C)O)nc2)nc1` (single isomer, unassigned) [Example 181], 0.05 nM; in that of `Cc1ccc([C@H]2C[C@@H]2COc2nc(C)ncc2-c2ccc(C)cc2C)nc1` [Example 2, 5-(2,4-dimethylphenyl)-2-methyl-4-(((1S,2S)-2-(5-methylpyridin-2-yl)cyclopropyl)methoxy)pyrimidine], 2.44 nM.
`Cc1ccc([C@H]2C[C@@H]2COc2nc(C)ncc2-c2cccc(OC(C)C)c2)nc1` [Example 3, 5-(3-isopropoxyphenyl)-2-methyl-4-(((1S,2S)-2-(5-methylpyridin-2-yl)cyclopropyl)methoxy)pyrimidine]: the Ki was 0.3 nM.
In the case of `Cc1ccc([C@H]2C[C@@H]2COc2nc(C)ncc2-c2cccc(C(C)C)c2)nc1` [Example 4, 5-(3-isopropylphenyl)-2-methyl-4-(((1S,2S)-2-(5-methylpyridin-2-yl)cyclopropyl)methoxy)pyrimidine] it was 2.14 nM; in that of `Cc1ccc([C@H]2C[C@@H]2COc2nc(C)ncc2-c2ccccc2OC(F)(F)F)nc1` [Example 5], 3.15 nM.
In the case of `Cc1ccc([C@H]2C[C@@H]2COc2nc(C)ncc2-c2c(F)cccc2F)nc1` [Example 6, 5-(2,6-difluorophenyl)-2-methyl-4-(((1S,2S)-2-(5-methylpyridin-2-yl)cyclopropyl)methoxy)pyrimidine], the Ki is 1.42 nM.
For `Cc1ccc([C@H]2C[C@@H]2COc2nc(C)ncc2-c2cc(F)cc(F)c2)nc1` [Example 7, 5-(3,5-difluorophenyl)-2-methyl-4-(((1S,2S)-2-(5-methylpyridin-2-yl)cyclopropyl)methoxy)pyrimidine], the Ki was determined as 0.46 nM.
In the case of `CCc1ccccc1-c1cnc(C)nc1OC[C@H]1C[C@@H]1c1ccc(C)cn1` [Example 8] it was 3.24 nM; in that of `Cc1ccc([C@H]2C[C@@H]2COc2nc(C)ncc2-c2ccc(F)c(C)c2)nc1` [Example 9, 5-(4-fluoro-3-methylphenyl)-2-methyl-4-(((1S,2S)-2-(5-methylpyridin-2-yl)cyclopropyl)methoxy)pyrimidine], 1.13 nM; in that of `Cc1ccc([C@H]2C[C@@H]2COc2nc(C)ncc2-c2ccc(C(F)(F)F)cc2)nc1` [Example 10, 2-methyl-4-(((1S,2S)-2-(5-methylpyridin-2-yl)cyclopropyl)methoxy)-5-(4-(trifluoromethyl)phenyl)pyrimidine], 5.71 nM.
In the case of `Cc1ccc([C@H]2C[C@@H]2COc2nc(C)ncc2-c2c(C)cccc2C)nc1` [Example 11, 5-(2,6-dimethylphenyl)-2-methyl-4-(((1S,2S)-2-(5-methylpyridin-2-yl)cyclopropyl)methoxy)pyrimidine] it was 4.43 nM.
In the case of `Cc1ccc([C@H]2C[C@@H]2COc2nc(C)ncc2-c2cccc(OC(F)(F)F)c2)nc1` [Example 12, 2-methyl-4-(((1S,2S)-2-(5-methylpyridin-2-yl)cyclopropyl)methoxy)-5-(3-(trifluoromethoxy)phenyl)pyrimidine] it was 1.11 nM.
